TGI and GI50 data for 11 molecules are collected here from PubChem BioAssay (NCI).

Common to all, as to experiment: NCI tumour cell line growth inhibition, 48 h
For assay [1], the system named is SF-295 CNS.
The subject of assay [2] is UACC-62 melanoma.
Assay [3] has as its system CAKI-1 renal.
Assay [4] concerns SNB-75 CNS.
Assay [5] has as its system EKVX NSCLC.
In assay [6] the test system is UACC-257 melanoma.
Assay [7] deals with U251 CNS.
Assay [8] deals with HCC-2998 colon.
Assay [9] concerns SK-MEL-28 melanoma.
In assay [10] the test system is SK-MEL-2 melanoma.

Each structure is given as a SMILES string.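 1) Cells in 96-well plates. 2) Compound, 48 h, 5 concentrations. 3) Linear interpolation between surrounding doses. 4) Unreached endpoint = highest concentration. Abbreviation: GI50, concentration required for 50% inhibition of growth. Definition used: TGI = concentration required for complete inhibition of growth.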 Where only a bound is given, the exact number is not on record here.

On to `NC(=O)c1ccc(Cl)c([N+](=O)[O-])c1`, for which the TGI in [1], in assay [2], in [3], in [4], in assay [5] and in assay [6] was > 100 µM in each case. The TGI in [7], in assay [8] and in assay [9] was > 100 µM in each case.

`CN(N)c1nc(N)c(C#N)c(C#N)c1C#N`: the TGI in assay [1], in [2], in assay [3], in assay [4], in [6] and in [7] was > 10 µM throughout. Further, the TGI in assay [8] and in [9] was > 10 µM throughout.

As for `CCN(Cc1c(F)cccc1Cl)c1ccc(CO)c(Cl)c1`, the GI50 in assay [1] is 0.178 µM; in assay [2] it was 0.0419 µM; in [3], 1.2 µM; in assay [4], 11.1 µM; in assay [6], < 0.0248 µM; in assay [8], 3.27 µM. Besides, the GI50 is 0.785 µM in [10] and 13.1 µM in [9]. Besides, the TGI in assay [1] was 15.7 µM; in [2], 0.269 µM; in [3], 17.4 µM; in assay [4], 25.5 µM; in assay [6] it was 0.05 µM; in assay [7], 16.6 µM. In addition, the TGI in assay [8] turned out to be 18.3 µM; in [10], 19.9 µM; in assay [9], 27.4 µM.

Regarding `CC1=CCCC2C(C=O)(C1)CC(C)C2(CO)CC/C(=C/CO)CO` (centres undefined), the TGI in [1], in assay [2], in [3], in assay [4], in [5] and in assay [6] was > 100 µM each time. Also, the TGI in assay [7], in assay [8] and in assay [9] was > 100 µM in each case.

Take `C=C1C(OC(C)=O)CC(OC(C)=O)C2(C)C(OC(C)=O)C(OC(C)=O)C3=C(C)C(OC(=O)/C=C/c4ccccc4)CC(C(OC(C)=O)C12)C3(C)C` (centres undefined): the TGI is > 100 µM in assay [1]; > 100 µM in [2]; > 100 µM in assay [3]; 43.4 µM in [4]; > 100 µM in assay [6]; > 100 µM in assay [7]. Further, the TGI in assay [8] and in [10] was > 100 µM in each case.

Take `c1ccc(OC2=NC3=S(S2)SC(Oc2ccccc2)=N3)cc1`: the TGI was found to be 39 µM in assay [1]; 37.6 µM in [2]; 34.3 µM in assay [3]; 59.5 µM in assay [4]; 48.3 µM in assay [5]; 34.7 µM in assay [6]. In addition, the figures for the TGI in assay [7], in [8] and in assay [10] were 26.8 µM, 35.2 µM and 29.8 µM, respectively.

With `Nc1ccc(/C=C/c2ccc3cccnc3c2)cc1`, the TGI in assay [1], in assay [2], in [3], in [4], in [5] and in [6] was > 100 µM each time. Further, the TGI in assay [7], in assay [8] and in [9] was > 100 µM each time.

As for `COC(=O)[C@H](Cc1cn(C)cn1)NC(=O)[C@H](Cc1ccccc1)NC(=O)Nc1cc(C(F)(F)F)cc(C(F)(F)F)c1`, the GI50 in assay [1] was 16.4 µM; in assay [3], 17.1 µM; in assay [4], 15.6 µM; in assay [6] it was 16.1 µM; in assay [7], 11.9 µM; in assay [8] it was 3.86 µM. The values for the GI50 in assay [10] and in [9] were 17.7 µM and 17.9 µM, respectively. Further, the TGI in [1] was found to be 31.5 µM; in [3], 31.7 µM; in [4], 30 µM; in assay [6], 30.1 µM; in assay [7], 24.6 µM; in assay [10], 32.3 µM. The same molecule came in with a TGI in assay [9] of 35.2 µM.

In the case of `O=C(/C=C/C12c3ccccc3C(c3ccccc31)C1C(=O)NC(=O)C12)c1ccccc1` (centres undefined), the GI50 in [2] was 1.77 µM; in [3], 1.49 µM; in assay [4] it was 1.2 µM; in assay [5] it was 1.75 µM; in assay [6] it was 1.61 µM; in [7], 1.55 µM. Also, the GI50 is 1.7 µM in assay [8], 2.35 µM in [10] and 1.88 µM in assay [9]. The TGI is 3.82 µM in assay [2]; 3.68 µM in assay [3]; 2.55 µM in [4]; 4.39 µM in assay [5]; 3.48 µM in [6]; 2.96 µM in assay [7]. Also, the TGI stood at 3.27 µM in assay [8], 4.62 µM in [10] and 3.63 µM in assay [9].

For the molecule `CCOC(=O)/C=C/c1cccc(F)c1`, the TGI in [2], in assay [3], in [4], in [5], in assay [6] and in assay [7] was > 100 µM in each case. For the same molecule, the TGI in [8], in assay [10] and in assay [9] was > 100 µM throughout.

Regarding `CCC[CH2][Sn]1([CH2]CCC)[S]CC[N]1S(=O)(=O)c1ccc(C)cc1`, the GI50 in assay [1] is 1.97 µM; in assay [2] it was 1.47 µM; in [3], 0.675 µM; in [4] it was 1.13 µM; in assay [6], 1.23 µM; in [7], 0.885 µM. For the same molecule, the values for the GI50 in assay [8], in [10] and in assay [9] were 1.95 µM, 1.39 µM and 1.29 µM, respectively. For the same molecule, the TGI in [1] is 3.42 µM; in [2], 3.13 µM; in [3] it was 1.96 µM; in [4] it was 2.38 µM; in [6] it was 2.5 µM; in [7], 2.1 µM. Also, the TGI in assay [8] was 3.44 µM; in [10] it was 2.73 µM; in [9] it was 2.61 µM.
